Assays:
[1] = test system: Bradykinin B1 agonist-induced secretion of IL-8; assay: Bradykinin B1 agonist-induced secretion of IL-8 in human IMR-90 cells; type: cell-based; conditions: 30 min compound, then 0.1 μM Lys-[Des-Arg9]Bradykinin and 0.1 μM Sar-[D-Phe8]-des-Arg9-Bradykinin for 5 hours
Description: 2. Inhibitory Activity on Bradykinin B1 Agonist-Induced Secretion of IL-6 and IL-8 in Human IMR-90 Cells
The effect of the Compound Examples on secretion of the cytokine IL-6 and IL-8 has been investigated in the human foetal lung fibroblast IMR-90 cell line. Here the induction of the cytokine secretion was induced by the Bradykinin B1 agonists Lys-[Des-Arg9]Bradykinin (CAS 71800-36-7, Tocris Bioscience) and Sar-[D-Phe8]-des-Arg9-Bradykinin (CAS 126959-88-4, Tocris Bioscience) leading to the activation of the Bradykinin B1-driven signalling pathway. The inhibitory activity of the tested Compound Examples on Bradykinin B1 agonist-induced secretion of IL-6 and IL-8 is indicative for the compounds' prominent anti-inflammatory mode of action in kinin driven inflammation.
IMR-90 cells were cultured in Eagle's Minimum Essential Medium (EMEM) containing 2 mM L-glutamine, 1 g/L glucose, 1.5 g/L NaHCO3, 1 mM sodium pyruvate and non-essential amino acids (ATCC, 30-2003™) supplemented with 10% FBS (Biochrom, S0615) and 50 U/mL Penicillin, 50 μg/mL Streptomycin (PAA, P11-010). The assay was performed in EMEM and a cell density of […] IMR-90 cells/96-well. The Compound Examples have been serial diluted in 100% DMSO and evaluated at 8 different concentrations within the range of 3 nM and 10 μM and a final DMSO concentration of 0.4%. The IMR-90 cells have been incubated with the respective concentration of the compound for 30 min. The enhanced secretion of IL-6 and IL-8 was induced by the stimulation of these cells with 0.1 μM Lys-[Des-Arg9]Bradykinin (Tocris, catalogue no. 3225) and 0.1 μM Sar-[D-Phe8]-des-Arg9-Bradykinin (Tocris, catalogue no. 3230) for 5 hours at 37° C. and 5% CO2. Further, cells have been treated with Lys-[Des-Arg9]Bradykinin and Sar[D-Phe8]-des-Arg9-Bradykinin as neutral control and with 0.1% DMSO as inhibitor control. The amount of IL-6 and IL-8 in the supernatant was determined using the Human ProInflammatory Panel II (4-Plex) (MSD, K15025B) according to manufacturer's instruction. Briefly, supernatants were added onto assay plates and incubated at room temperature for 1-2 h with vigorous shaking at 600 rpm. Detection antibodies were then added onto the supernatants and incubated at room temperature for an additional 1-2 h with vigorous shaking at 600 rpm. Plates were washed three times with phosphate-buffered saline (PBS; 137 mM NaCl, 2.7 mM KC1, 6.5 mM Na2HP04, 1.7 mM KH2P04) containing 0.05% Tween-20 (Bio-Rad, 161-0781) and electrochemiluminescence detected using the MSD Sector Imager 6000 plate reader. The cell viability was measured using the CellTiter-Glo Luminescent Assay (Promega, G7571) following the manufacturers protocol. Briefly, the CellTiter-Glo Reagent was diluted with PBS (1:1) and added directly to cells. After incubation and shaking for 10 minutes luminescent signal was measured which is proportional to the amount of ATP present.
The effect of the compound on the amount of secreted cytokine has been calculated as 100/(measured cytokine concentration of neutral control-measured cytokine concentration of inhibitor control)*(measured cytokine concentration of compound dose-measured cytokine concentration of inhibitor control). IC50 values are determined using 4-parameter-fit.
The Compound Examples were tested in triplicates per plate and the inhibitory activity was determined as the relation between neutral and inhibitor control in percent. IC50 values were calculated using the 4-parameter logistic model.

[2] = target: T1, native human Bradykinin B1 receptor (Homo sapiens, UniProt P46663); assay: Calcium flux assay (FLIPR) with IMR-90 human fibroblasts expressing Bradykinin B1 receptor after IL-1beta induction (hB1 IMR-90); type: cell-based; conditions: IMR-90 human fibroblasts after IL-1beta induction, read-out: hB1 IMR90 IC50
T1 construct: which express native human Bradykinin B1 receptor after induction with human IL-1beta; Coriell Institute; host or cells: IMR-90 human foetal lung fibroblasts, induced with human IL-1beta
T1 sequence (P46663 1-353): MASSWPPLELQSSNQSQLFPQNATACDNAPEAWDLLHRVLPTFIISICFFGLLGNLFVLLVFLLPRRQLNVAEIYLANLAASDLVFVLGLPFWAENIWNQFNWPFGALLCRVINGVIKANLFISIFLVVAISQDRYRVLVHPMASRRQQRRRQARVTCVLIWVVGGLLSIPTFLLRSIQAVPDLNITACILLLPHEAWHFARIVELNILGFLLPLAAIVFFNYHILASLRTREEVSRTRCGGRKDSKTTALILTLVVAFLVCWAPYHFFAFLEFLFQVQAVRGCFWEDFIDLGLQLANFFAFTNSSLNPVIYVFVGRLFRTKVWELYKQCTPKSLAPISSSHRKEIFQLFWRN
Summary of the method: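 IMR-90 foetal lung fibroblasts induced with 0.35 ng/mL IL-1beta for 3 h to express native B1 receptor, then loaded with 2.5 μM Fluo-4/AM plus 2.5 mM probenecid for 2 h at 37 °C. Calcium flux read by FLIPR; compounds at 8 concentrations in triplicate, full inhibition defined by 20 μM Lys-(Des-Arg-Leu)-Bradykinin; IC50 derived.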

O=C(O)c1cc(NC(=O)C2(c3ccc(C(F)(F)F)cc3F)CC2)ccc1-c1cc2ccccc2s1 [Example 1, 2-(1-Benzothiophen-2-yl)-5-[({1-[2-fluoro-4-(trifluoromethyl)phenyl]cyclopropyl}carbonyl)amino]benzoic acid]
IC50 [1]: 245 nM
IC50 [2]: 72 nM

CCC(F)(F)c1ccc(-c2ccc(NC(=O)C3(c4ccc(C(F)(F)F)cc4F)CC3)cc2C(=O)O)cn1 [Example 2, 2-[6-(1,1-Difluoropropyl)pyridin-3-yl]-5-[({1-[2-fluoro-4-(trifluoromethyl)-phenyl]cyclopropyl}carbonyl)amino]benzoic acid]
IC50 [1]: 303 nM
IC50 [2]: 44 nM

O=C(O)c1cc(NC(=O)C2(c3ccc(C(F)(F)F)cc3F)CC2)ccc1-c1cnn(C2CCC2)c1 [Example 3, 2-(1-Cyclobutyl-1H-pyrazol-4-yl)-5-[({1-[2-fluoro-4-(trifluoromethyl)phenyl]cyclopropyl}carbonyl)amino]benzoic acid]
IC50 [1]: 53 nM
IC50 [2]: 12 nM

O=C(O)c1cc(NC(=O)C2(c3ccc(OC(F)(F)F)cc3F)CC2)ccc1-c1ccc(C(F)F)nc1 [Example 5, 2-[6-(Difluoromethyl)pyridin-3-yl]-5-[({1-[2-fluoro-4-(trifluoromethoxy)phenyl]cyclopropyl}carbonyl)amino]benzoic acid]
IC50 [1]: 483 nM
IC50 [2]: 2700 nM

O=C(O)c1cc(NC(=O)C2(c3ccc(C(F)(F)F)cc3F)CC2)ccc1-c1ccc(C(F)(F)F)nc1 [Example 6, 5-[({1-[2-Fluoro-4-(trifluoromethyl)phenyl]cyclopropyl}carbonyl)amino]-2-[6-(trifluoromethyl)pyridin-3-yl]benzoic acid]
IC50 [1]: 205 nM
IC50 [2]: 550 nM

O=C(O)c1cc(NC(=O)C2(c3ccc(C(F)(F)F)cc3F)CC2)cc(F)c1-c1ccc(C(F)(F)F)nc1 [Example 29, 3-Fluoro-5-[({1-[2-fluoro-4-(trifluoromethyl)phenyl]cyclopropyl}carbonyl)amino]-2-[6-(trifluoromethyl)pyridin-3-yl]benzoic acid]
IC50 [1]: 489 nM
IC50 [2]: 21 nM

O=C(O)c1cc(NC(=O)C2(c3ccc(C(F)(F)F)cc3F)CC2)cc(F)c1-c1cnn(C2CCC2)c1 [Example 42, 2-(1-Cyclobutyl-1H-pyrazol-4-yl)-3-fluoro-5-[({1-[2-fluoro-4-(trifluoromethyl)phenyl]cyclopropyl}carbonyl)amino]benzoic acid]
IC50 [1]: 85 nM
IC50 [2]: 4.1 nM

Source: patent publication US12023319B2, “Carboxylic acid aromatic amides” (priority 2016, dated 2024)
